In US20260263550A1, “METHODS AND COMPOSITIONS FOR TREATING, PREVENTING, INHIBITING, AMELIORATING OR DELAYING THE ONSET OF OPHTHALMIC CONDITIONS” (Stealth BioTherapeutics Inc., priority 2021, published 2026):

Tested on: iPSC-derived RPE cells from AMD donors
Assay: Microarray analysis of gene expression on in vitro Bruch's membrane model
Assay type: cell-based, human
Settings: AMD-derived RPE on nitrite-modified ECM, 10, 100, 1000 nM, 24 hours
Experimental: General. iPSC-derived RPE were generated from AMD patients (2 atrophic; 1 exudative) and patients with no history of AMD (n=3). To test the therapeutic efficacy of elamipretide and compound of Formula IIa, cell viability was analyzed on nitrite-modified extracellular matrix (ECM), a typical modification of aged Bruch's membrane, for 24 hrs. DNA microarrays were used to elucidate gene expression in AMD-derived RPE cultured on nitrite-modified ECM.
Microarray analysis. iPSC-derived RPE cells from AMD donors (n=3; 2 atrophic with GA, 1 exudative) were treated with drug (elamipretide or compound of Formula IIa) as described below and cultured on an in vitro Bruch's membrane model for 24 hours.
• AMD donors only (n=3 individual donors) • Cells treated with elamipretide (also referred to as “309” in the figures) at 10 nM, 100 nM and 1000 nM • Cells treated with compound of Formula IIa (also referred to as “146c” in the figures) at 10 nM, 100 nM, 1000 nM
Microarray studies using Affymetrix GeneChip Human Clariom™ S Assay were performed as described in Gong et al. (2020).

SMILES: Cc1cc(O)cc(C)c1C[C@H](NC(=O)[C@H](N)CCCNC(=N)N)C(=O)N[C@@H](CCCCN)c1nc(Cc2ccccc2)no1.Cl.Cl.Cl [Formula IIa, (R)-2-amino-N—((S)-1-(((S)-5-amino-1-(3-benzyl-1,2,4-oxadiazol-5-yl)pentyl)amino)-3-(4-hydroxy-2,6-dimethylphenyl)-1-oxopropan-2-yl)-5-guanidinopentanamide]
- expression of complement regulatory genes including CFHR2 (FIG. 8S): increase expression
- expression of complement component genes (C1R, C3, C4A) increased by nitration of ECM (FIGS. 8L-8P): reverse this trend
- expression of mitochondrial-related genes, such as CYP24A1 and GLS (FIGS. 8W-8Z): altered the expression
